Where two headings read alike, the source gives them in different places. Ends that are not written are not given here.
T1: MrgX2 (Homo sapiens, UniProt Q96LB1)
T1 construct: host or cells: recombinant HEK cells (A3); CHEM1 cells recombinantly expressing MrgX2 (A11)
T1 sequence (Q96LB1 1-330): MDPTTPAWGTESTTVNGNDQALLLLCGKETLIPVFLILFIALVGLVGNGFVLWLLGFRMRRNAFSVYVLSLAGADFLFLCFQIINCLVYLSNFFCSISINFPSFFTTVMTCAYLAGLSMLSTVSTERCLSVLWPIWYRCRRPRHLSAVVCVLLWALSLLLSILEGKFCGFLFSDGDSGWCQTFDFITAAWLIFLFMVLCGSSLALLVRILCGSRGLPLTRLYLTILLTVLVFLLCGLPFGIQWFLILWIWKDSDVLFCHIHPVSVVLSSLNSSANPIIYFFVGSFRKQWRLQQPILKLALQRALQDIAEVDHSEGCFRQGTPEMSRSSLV

T2: human wildtype MrgX2 (Homo sapiens, UniProt Q96LB1)
T2 construct: expressed in transfected cells; host or cells: LN229 cells
T2 sequence (Q96LB1 1-330): T1 sequence (Q96LB1 1-330)

B1: CXCL14: small chemokine (C-X-C motif) ligand 14 (protein, UniProt O95715 35-111, looked up)
C-X-C motif chemokine 14: SKCKCSRKGPKIRYSDVKKLEMKPKYPHCEEKMVIITTKSVSRYRGQEHCLHPKLQSTKRFIKWYNAWNEKRRVYEE

Legend:
human LAD2 mast cells = details: cited from earlier work
MrgX2 [1] = molecular target: T1, MrgX2; details: read-out: EC50 value; calcium assays, MrgX2 activation; cited from earlier work
MrgX2 [2] = molecular target: T1, MrgX2; details: versus CST-14, calcium mobilization; cited from earlier work
MrgX2 [3] = molecular target: T1, MrgX2; details: β-arrestin assay; cited from earlier work
MrgX2 [4] = molecular target: T1, MrgX2; details: calcium mobilization assay; cited from earlier work
human MrgX4 L83S = molecular target: T3, human MrgX4 L83S (Homo sapiens, UniProt Q96LA9, L83S); assay: β-arrestin assay (CHO β-arrestin human MrgX4 L83S); assay type: cell-based; details: for % inhibition ± SEM: test concentration not given
T3 construct: expressed in transfected cells; host or cells: CHO beta-arrestin cells

human wildtype MrgX2 = molecular target: T2, human wildtype MrgX2; assay: calcium assay (LN229 cells recombinantly expressing human wildtype MrgX2); assay type: cell-based; details: for % inhibition ± SEM: test concentration not given
MrgX2 [5] = molecular target: T1, MrgX2; details: calcium assays; cited from earlier work
MrgX2 [6] = molecular target: T1, MrgX2; details: CHEM1 cell line recombinantly expressing MrgX2; cited from earlier work
[7] = system: CHEM1 cells without MrgX2 overexpression; details: cited from earlier work

T3 sequence (Q96LA9 whole entry L83S): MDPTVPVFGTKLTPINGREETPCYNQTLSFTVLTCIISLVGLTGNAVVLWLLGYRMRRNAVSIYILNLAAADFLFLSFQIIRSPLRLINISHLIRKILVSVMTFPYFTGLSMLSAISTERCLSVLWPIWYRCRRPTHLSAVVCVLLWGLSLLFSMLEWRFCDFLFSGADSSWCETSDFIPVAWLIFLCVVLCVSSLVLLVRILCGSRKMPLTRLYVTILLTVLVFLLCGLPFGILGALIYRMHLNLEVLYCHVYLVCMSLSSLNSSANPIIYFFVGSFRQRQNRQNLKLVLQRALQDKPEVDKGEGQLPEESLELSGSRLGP

Row | Molecule | IC50 (human MrgX4 L83S) | IC50 (human wildtype MrgX2) | also measured
1 | C[C@H]1O[C@@H](O[C@H]2CC[C@@]3(C)[C@@H](CC[C@]4(C)[C@@H]3C=C[C@]35OC[C@@]6(CCC(C)(C)C[C@H]63)[C@@H](O)C[C@]54C)[C@]2(C)CO)[C@H](O)[C@@H](O[C@@H]2O[C@H](CO)[C@@H](O)[C@H](O)[C@H]2O)[C@H]1O [saikosaponin A, Saikosaponin A] |  |  | β-hexosaminidase release of substance P and saikosaponin A together (human LAD2 mast cells; 0.50 μM saikosaponin A vs. 30 μg/mL (≈31.2 μM) compound 48/80, LAD2): 30%
2 | CN1CC[C@@]23CCCC[C@@H]2[C@@H]1Cc1ccc(O)cc13 [dextrorphan] |  |  | EC50 (MrgX2 [1]): 1.4 µM
3 | COc1ccc2c(c1)[C@@]13CCCC[C@H]1[C@@H](C2)NCC3 [3-methoxymorphinan] |  |  | EC50 (MrgX2 [1]): 4.7 µM
4 | O=C(/C=C/c1ccc(O)cc1)c1ccc(O)cc1O [isoliquiritigenin, Isoliquiritigenin] |  |  | β-hexosaminidase release of compound 48/80 and isoliquiritigenin together (human LAD2 mast cells; 50 μM isoliquiritigenin vs. 30 μg/mL (≈31.2 μM) compound 48/80, LAD2): 40%
5 | CC(=O)N1c2ccccc2Nc2ccccc21 [Compound 1, 1-(5H-10λ^2-phenazin-5-yl)ethan-lone] |  |  | IC50 (MrgX2 [2]): 1.6 µM
6 | O=c1c2ccccc2[nH]c(=S)n1Cc1ccccn1 [compound 2, 3-(pyridine-2-ylmethyl)-2-thioxo-2,3-dihydro-4H-1λ^2-quinazolin-4-one] |  |  | IC50 (MrgX2 [2]): 2.5 µM
7 | CN1CC[C@]2(c3cccc(O)c3)Cc3nc4ccccc4cc3C[C@H]2C1 [TAN-67] |  |  | EC50 (MrgX2 [3]): ~1 µM; EC50 (MrgX2 [4]): ~1 µM
8 | CN1CC[C@]23c4c5ccc(O)c4O[C@H]2[C@@H](O)C=C[C@H]3[C@H]1C5 [morphine] |  |  | EC50 (MrgX2 [1]): 4.5 µM
9 | CC(C)c1cc(=O)n2c3ccccc3n(C)c2n1 [B-36] | > 100 µM | > 100 µM | % inhibition ± SEM (human MrgX4 L83S): 48%; % inhibition ± SEM (human wildtype MrgX2): 10%
10 | CCCc1c(CC)c(=O)n2c([nH]c3ccccc32)c1C#N [C-88] | 5.54 ± 1.74 µM | > 10 µM | % inhibition ± SEM (human wildtype MrgX2): 86%
11 | CCc1c(CC(C)C)[nH]c2nc3ccccc3n2c1=O [C-78] | 0.468 ± 0.052 µM | 0.0513 ± 0.0191 µM | 
12 | CCc1c(C(C)C)[nH]c2nc3ccccc3n2c1=O [B-37] | 0.29 ± 0.098 µM | 0.00248 ± 0.00075 µM | 
13 | CCCc1c(C)[nH]c2nc3ccccc3n2c1=O [A-10] | 2.42 ± 0.22 µM | 0.683 ± 0.174 µM | 
14 | C[C@@H]1C[C@H]2Cc3ncc(-c4ccc5c(n4)C[C@@H]4C[C@@H](C)C[C@]56NCCC[C@H]46)cc3[C@]3(C1)NCCC[C@H]23 [Complanadine A] |  |  | EC50 (MrgX2 [5]): 5.5 µM
15 | CCc1c(C(C)C)[nH]c2nc3cc(C)ccc3n2c1=O [C-71] | 0.091 ± 0.0292 µM | 0.000446 ± 0.000142 µM | 
16 | Gln-D-Trp(Formyl-)Phe-benzylester [QWF] |  |  | β-hexosaminidase release of SP and QWF together (human LAD2 mast cells; 100 μM QWF vs. 1 μM substance P, LAD2): 20%
17 | substance P (RPKPQQFFGLM-NH2; ends and bridges not checked; UniProt P20366 58-68, looked up) |  |  | β-hexosaminidase release of SP alone (human LAD2 mast cells; 1 μM substance P, LAD2): 60%; β-hexosaminidase release of substance P alone (human LAD2 mast cells; saikosaponin A study, stimulus stated as 30 μg/mL compound 48/80, LAD2): 100%
18 | CCc1c(O)[nH]c2nc3ccccc3n2c1=O [A-24] | > 100 µM | > 100 µM | % inhibition ± SEM (human MrgX4 L83S): 16%; % inhibition ± SEM (human wildtype MrgX2): 2%
19 | CCc1c(C)n(C)c2nc3ccccc3n2c1=O [A-30] | > 10 µM | > 100 µM | % inhibition ± SEM (human MrgX4 L83S): 2%; % inhibition ± SEM (human wildtype MrgX2): 31%
20 | CCc1c(C)[nH]c2nc3ccccc3n2c1=O [A-9] | 3.23 ± 0.36 µM | 0.662 ± 0.102 µM | 
21 | CCCc1c(-c2ccccc2)[nH]c2nc3ccccc3n2c1=O [A-21] | 0.583 ± 0.049 µM | 0.0121 ± 0.0015 µM | 
22 | CCCc1[nH]c2nc3cc(C)c(C)cc3n2c(=O)c1CC [B-44] | 1.4 ± 0.36 µM | 0.199 ± 0.025 µM | 
23 | CCOC(=O)CCc1c(C)[nH]c2nc3ccccc3n2c1=O [A-15] | 1.4 ± 0.88 µM | > 100 µM | % inhibition ± SEM (human wildtype MrgX2): 3%
24 | CCc1c(C(C)C)[nH]c2nc3cc(Br)c(Br)cc3n2c1=O [C-75] | 0.89 ± 0.184 µM | 0.0368 ± 0.0084 µM | 
25 | B1 |  |  | EC50 (MrgX2 [6]): 0.57 µM; calcium release [7]: not to mediate calcium release
